Data from PubChem BioAssay AID1918999 (Molecular Pharmacology Branch, DTP, NCI, 2023).
pIC50: −log10 of the molar value.

Test system: 556581-035-R-J1-PDC complex spheroid growth
Assay: Anticancer human tumor 556581-035-R-J1-PDC patient-derived ovarian carcinoma cell line growth inhibition [AhR]
Conditions: for pIC50: curve of first compound; for viability, T/C: stronger effect = lower value
Method in brief: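 Spheroids combined tumor cells with HUVEC endothelial cells and human MSCs as stroma. AhR antagonists were paired with standard or investigational drugs, each dosed in half-log steps down from near clinical Cmax, or from 10 microM where Cmax was unknown.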

[1] = second compound 0.1 µM, first compound 0.0316 µM
[2] = second compound 0.1 µM, first compound 0.1 µM
[3] = second compound 0.1 µM, first compound 0.316 µM
[4] = second compound 0.1 µM, first compound 1 µM
[5] = second compound 0.1 µM, first compound 3.16 µM
[6] = second compound 0.1 µM, first compound 10 µM
[7] = second compound 0.316 µM, first compound 0.0316 µM
[8] = second compound 0.316 µM, first compound 0.1 µM
[9] = second compound 0.316 µM, first compound 0.316 µM
[10] = second compound 0.316 µM, first compound 1 µM
[11] = second compound 0.316 µM, first compound 3.16 µM
[12] = second compound 0.316 µM, first compound 10 µM
[13] = second compound 1 µM, first compound 0.0316 µM
[14] = second compound 1 µM, first compound 0.1 µM
[15] = second compound 1 µM, first compound 0.316 µM
[16] = second compound 1 µM, first compound 1 µM
[17] = second compound 1 µM, first compound 3.16 µM
[18] = second compound 1 µM, first compound 10 µM
[19] = second compound 3.16 µM, first compound 0.0316 µM
[20] = second compound 3.16 µM, first compound 0.1 µM
[21] = second compound 3.16 µM, first compound 0.316 µM
[22] = second compound 3.16 µM, first compound 1 µM
[23] = second compound 3.16 µM, first compound 3.16 µM
[24] = second compound 3.16 µM, first compound 10 µM
[25] = second compound 10 µM, first compound 0.0316 µM
[26] = second compound 10 µM, first compound 0.1 µM
[27] = second compound 10 µM, first compound 0.316 µM
[28] = second compound 10 µM, first compound 1 µM
[29] = second compound 10 µM, first compound 3.16 µM
[30] = second compound 10 µM, first compound 10 µM
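For viability, T/C in this document: compound exposure lasted 7 days; 100% = DMSO vehicle control growth.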

CC(C)CC(NC(=O)C(Cc1ccccc1)NC(=O)c1cnccn1)B(O)O (stereo not given) + Cc1ccccc1N=Nc1ccc(NC(=O)c2ccnn2C)c(C)c1
pIC50 (second compound 0.1 µM): 8.24 | pIC50 (second compound 0.316 µM): 8.24 | pIC50 (second compound 1 µM): 8.23 | pIC50 (second compound 3.16 µM): 8.25 | pIC50 (second compound 10 µM): 8.22 | viability, T/C (second compound 0.1 µM, first compound 0.000949 µM): 91.6% | viability, T/C (second compound 0.1 µM, first compound 0.003 µM): 117% | viability, T/C (second compound 0.1 µM, first compound 0.00949 µM): 8.91% | viability, T/C (second compound 0.1 µM, first compound 0.03 µM): 0.21% | viability, T/C (second compound 0.1 µM, first compound 0.0949 µM): 0.17% | viability, T/C (second compound 0.1 µM, first compound 0.3 µM): 0.27% | viability, T/C (second compound 0.316 µM, first compound 0.000949 µM): 97.2% | viability, T/C (second compound 0.316 µM, first compound 0.003 µM): 105% | viability, T/C (second compound 0.316 µM, first compound 0.00949 µM): 10.2% | viability, T/C (second compound 0.316 µM, first compound 0.03 µM): 0.34% | viability, T/C (second compound 0.316 µM, first compound 0.0949 µM): 0.22% | viability, T/C (second compound 0.316 µM, first compound 0.3 µM): 0.22% | viability, T/C (second compound 1 µM, first compound 0.000949 µM): 90.2% | viability, T/C (second compound 1 µM, first compound 0.003 µM): 115% | viability, T/C (second compound 1 µM, first compound 0.00949 µM): 13.2% | viability, T/C (second compound 1 µM, first compound 0.03 µM): 0.19% | viability, T/C (second compound 1 µM, first compound 0.0949 µM): 0.16% | viability, T/C (second compound 1 µM, first compound 0.3 µM): 0.26% | viability, T/C (second compound 3.16 µM, first compound 0.000949 µM): 88.2% | viability, T/C (second compound 3.16 µM, first compound 0.003 µM): 100% | viability, T/C (second compound 3.16 µM, first compound 0.00949 µM): 13.6% | viability, T/C (second compound 3.16 µM, first compound 0.03 µM): 0.16% | viability, T/C (second compound 3.16 µM, first compound 0.0949 µM): 0.17% | viability, T/C (second compound 3.16 µM, first compound 0.3 µM): 0.22% | viability, T/C (second compound 10 µM, first compound 0.000949 µM): 82.3% | viability, T/C (second compound 10 µM, first compound 0.003 µM): 89.1% | viability, T/C (second compound 10 µM, first compound 0.00949 µM): 25.9% | viability, T/C (second compound 10 µM, first compound 0.03 µM): 0.35% | viability, T/C (second compound 10 µM, first compound 0.0949 µM): 0.31% | viability, T/C (second compound 10 µM, first compound 0.3 µM): 0.28%

COc1cc(Nc2ncc3c(n2)-c2ccc(Cl)cc2C(c2c(F)cccc2OC)=NC3)ccc1C(=O)O + Cc1ccccc1N=Nc1ccc(NC(=O)c2ccnn2C)c(C)c1
pIC50 (second compound 0.1 µM): < 5.00 | pIC50 (second compound 0.316 µM): < 5.00 | pIC50 (second compound 1 µM): < 5.00 | pIC50 (second compound 3.16 µM): < 5.00 | pIC50 (second compound 10 µM): < 5.00 | viability, T/C [1]: 83.8% | viability, T/C [2]: 72.4% | viability, T/C [3]: 69.2% | viability, T/C [4]: 61.4% | viability, T/C [5]: 60.4% | viability, T/C [6]: 59.4% | viability, T/C [7]: 78% | viability, T/C [8]: 73.5% | viability, T/C [9]: 68.5% | viability, T/C [10]: 56.6% | viability, T/C [11]: 61.1% | viability, T/C [12]: 48.7% | viability, T/C [13]: 80.5% | viability, T/C [14]: 73.2% | viability, T/C [15]: 69% | viability, T/C [16]: 62.8% | viability, T/C [17]: 64.7% | viability, T/C [18]: 54.9% | viability, T/C [19]: 67.2% | viability, T/C [20]: 66.2% | viability, T/C [21]: 57.6% | viability, T/C [22]: 58.1% | viability, T/C [23]: 58.6% | viability, T/C [24]: 49.2% | viability, T/C [25]: 70.2% | viability, T/C [26]: 61.9% | viability, T/C [27]: 62.1% | viability, T/C [28]: 66% | viability, T/C [29]: 57.6% | viability, T/C [30]: 56.8%

NS(=O)(=O)OCC1CC(n2ccc3c(NC4CCc5ccccc54)ncnc32)CC1O (stereo not given) + Cc1ccccc1N=Nc1ccc(NC(=O)c2ccnn2C)c(C)c1
pIC50 (second compound 0.1 µM): < 5.00 | pIC50 (second compound 0.316 µM): < 5.00 | pIC50 (second compound 1 µM): < 5.00 | pIC50 (second compound 3.16 µM): < 5.00 | pIC50 (second compound 10 µM): < 5.00 | viability, T/C [1]: 101% | viability, T/C [2]: 103% | viability, T/C [3]: 103% | viability, T/C [4]: 108% | viability, T/C [5]: 106% | viability, T/C [6]: 82.2% | viability, T/C [7]: 105% | viability, T/C [8]: 104% | viability, T/C [9]: 97.2% | viability, T/C [10]: 103% | viability, T/C [11]: 93.9% | viability, T/C [12]: 80.2% | viability, T/C [13]: 92.9% | viability, T/C [14]: 102% | viability, T/C [15]: 101% | viability, T/C [16]: 101% | viability, T/C [17]: 95.7% | viability, T/C [18]: 79.7% | viability, T/C [19]: 97.1% | viability, T/C [20]: 96.5% | viability, T/C [21]: 89.3% | viability, T/C [22]: 89.7% | viability, T/C [23]: 88.8% | viability, T/C [24]: 73.3% | viability, T/C [25]: 91.3% | viability, T/C [26]: 80% | viability, T/C [27]: 89.8% | viability, T/C [28]: 88.2% | viability, T/C [29]: 83.6% | viability, T/C [30]: 69.6%

Nc1ccccc1NC(=O)c1ccc(CNC(=O)OCc2cccnc2)cc1 + Cc1ccccc1N=Nc1ccc(NC(=O)c2ccnn2C)c(C)c1
pIC50 (second compound 0.1 µM): 5.67 | pIC50 (second compound 0.316 µM): 5.64 | pIC50 (second compound 1 µM): 5.55 | pIC50 (second compound 3.16 µM): 5.58 | pIC50 (second compound 10 µM): 5.51 | viability, T/C [1]: 101% | viability, T/C [2]: 112% | viability, T/C [3]: 87.2% | viability, T/C [4]: 69.3% | viability, T/C [5]: 40.8% | viability, T/C [6]: 18.9% | viability, T/C [7]: 110% | viability, T/C [8]: 102% | viability, T/C [9]: 93.7% | viability, T/C [10]: 72.2% | viability, T/C [11]: 41.1% | viability, T/C [12]: 19.4% | viability, T/C [13]: 110% | viability, T/C [14]: 106% | viability, T/C [15]: 92.7% | viability, T/C [16]: 70% | viability, T/C [17]: 49% | viability, T/C [18]: 21.5% | viability, T/C [19]: 113% | viability, T/C [20]: 104% | viability, T/C [21]: 88.3% | viability, T/C [22]: 68.5% | viability, T/C [23]: 47.3% | viability, T/C [24]: 20.6% | viability, T/C [25]: 99.5% | viability, T/C [26]: 95.9% | viability, T/C [27]: 92.9% | viability, T/C [28]: 68.2% | viability, T/C [29]: 52.2% | viability, T/C [30]: 32.8%

O=C(C=Cc1cccc(S(=O)(=O)Nc2ccccc2)c1)NO + Cc1ccccc1N=Nc1ccc(NC(=O)c2ccnn2C)c(C)c1
pIC50 (second compound 0.1 µM): 5.92 | pIC50 (second compound 0.316 µM): 5.87 | pIC50 (second compound 1 µM): 5.89 | pIC50 (second compound 3.16 µM): 5.95 | pIC50 (second compound 10 µM): 5.81 | viability, T/C [1]: 99.8% | viability, T/C [2]: 113% | viability, T/C [3]: 87% | viability, T/C [4]: 50.8% | viability, T/C [5]: 28.4% | viability, T/C [6]: 4.1% | viability, T/C [7]: 106% | viability, T/C [8]: 92.7% | viability, T/C [9]: 91.9% | viability, T/C [10]: 57.1% | viability, T/C [11]: 24.9% | viability, T/C [12]: 4.53% | viability, T/C [13]: 93.9% | viability, T/C [14]: 107% | viability, T/C [15]: 91.7% | viability, T/C [16]: 53.2% | viability, T/C [17]: 27.7% | viability, T/C [18]: 6.45% | viability, T/C [19]: 96.4% | viability, T/C [20]: 90.5% | viability, T/C [21]: 77.7% | viability, T/C [22]: 51.4% | viability, T/C [23]: 27.1% | viability, T/C [24]: 5.72% | viability, T/C [25]: 86.2% | viability, T/C [26]: 83.2% | viability, T/C [27]: 79.8% | viability, T/C [28]: 61% | viability, T/C [29]: 30.9% | viability, T/C [30]: 7.96%

O=C(c1cc(Cc2n[nH]c(=O)c3ccccc23)ccc1F)N1CCN(C(=O)C2CC2)CC1 + Cc1ccccc1N=Nc1ccc(NC(=O)c2ccnn2C)c(C)c1
pIC50 (second compound 0.1 µM): < 5.00 | pIC50 (second compound 0.316 µM): < 5.00 | pIC50 (second compound 1 µM): < 5.00 | pIC50 (second compound 3.16 µM): < 5.00 | pIC50 (second compound 10 µM): < 5.00 | viability, T/C [1]: 100% | viability, T/C [2]: 92.5% | viability, T/C [3]: 89.2% | viability, T/C [4]: 95% | viability, T/C [5]: 78.3% | viability, T/C [6]: 76.1% | viability, T/C [7]: 103% | viability, T/C [8]: 88.2% | viability, T/C [9]: 87.8% | viability, T/C [10]: 97.3% | viability, T/C [11]: 87.8% | viability, T/C [12]: 72.3% | viability, T/C [13]: 92.7% | viability, T/C [14]: 96.8% | viability, T/C [15]: 93.3% | viability, T/C [16]: 99.5% | viability, T/C [17]: 93.3% | viability, T/C [18]: 76.6% | viability, T/C [19]: 89% | viability, T/C [20]: 93.7% | viability, T/C [21]: 84.2% | viability, T/C [22]: 80.9% | viability, T/C [23]: 82.4% | viability, T/C [24]: 77.5% | viability, T/C [25]: 78.2% | viability, T/C [26]: 82.3% | viability, T/C [27]: 82.5% | viability, T/C [28]: 82.6% | viability, T/C [29]: 82.4% | viability, T/C [30]: 74.8%
